33 compounds from patent US20250084078A1, “FUSED RING-SUBSTITUTED SIX-MEMBERED HETEROCYCLIC COMPOUND, AND PREPARATION METHOD THEREFOR AND USE THEREOF” (GENFLEFT THERAPEUTICS (SHANGHAI) INC., priority 2022, published 2025) can be followed below.

HPK1, sequence (Q92918 whole entry): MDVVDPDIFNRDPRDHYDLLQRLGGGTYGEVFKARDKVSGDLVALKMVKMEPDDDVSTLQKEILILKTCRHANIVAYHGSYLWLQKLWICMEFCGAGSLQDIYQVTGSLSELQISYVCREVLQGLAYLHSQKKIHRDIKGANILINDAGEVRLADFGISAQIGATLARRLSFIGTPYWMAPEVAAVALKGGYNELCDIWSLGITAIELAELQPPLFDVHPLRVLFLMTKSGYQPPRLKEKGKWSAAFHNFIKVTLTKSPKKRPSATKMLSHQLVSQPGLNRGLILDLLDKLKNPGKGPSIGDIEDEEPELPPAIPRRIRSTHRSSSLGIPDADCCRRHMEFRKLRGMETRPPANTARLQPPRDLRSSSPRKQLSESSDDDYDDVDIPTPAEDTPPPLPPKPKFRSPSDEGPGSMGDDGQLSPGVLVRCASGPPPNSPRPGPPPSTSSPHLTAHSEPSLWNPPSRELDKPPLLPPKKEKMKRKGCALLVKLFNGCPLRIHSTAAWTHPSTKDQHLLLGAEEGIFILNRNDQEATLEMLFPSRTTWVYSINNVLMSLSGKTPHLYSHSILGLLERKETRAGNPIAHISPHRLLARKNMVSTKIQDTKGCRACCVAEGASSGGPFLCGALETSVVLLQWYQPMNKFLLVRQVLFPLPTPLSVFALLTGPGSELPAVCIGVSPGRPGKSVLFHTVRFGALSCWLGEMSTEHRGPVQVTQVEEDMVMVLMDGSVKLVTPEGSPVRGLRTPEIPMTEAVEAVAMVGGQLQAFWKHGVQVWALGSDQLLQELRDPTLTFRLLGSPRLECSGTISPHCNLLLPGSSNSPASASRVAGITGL

The experiment concerns the target HPK1 (Homo sapiens, UniProt Q92918). The experiment can be described thus: SLP76 phosphorylation assay (intracellular HPK1 inhibitory activity, p-SLP76 S376 ELISA in Jurkat cells). To be noted: p-SLP76 IC50, Jurkat, Clone E6-1 cells; 1 h compound pre-incubation; anti-CD3 beads stimulation 20 min; Phospho-SLP-76 (Ser376) ELISA. (In general: In an ELISA, binding on a coated surface is turned into a signal by an enzyme label.)
Procedure: SLP76 Phosphorylation Assay
Intracellular HPK1 inhibitory activity was tested by the detection of SLP76 phosphorylation at S376.
Preparation of 1000× drug stock plate: a 1000× compound stock plate was prepared. […] The compound stock plate was sealed with a sealing film and stored in a −20° C. refrigerator for later use.
Preparation of Beads wash buffer: 0.1 mL FBS and 0.4 mL 0.5 M EDTA (with a final concentration of 2 mM) were added to 100 mL PBS and stored in a 4° C. refrigerator for later use.
100× Protease Inhibitor Cocktail in 1/20 total volume was added and stored on wet ice for later use. The buffer was ready to use.
Cell inoculation and dosing: the 1000× drug stock plate was taken and melted at room temperature in the dark. […] Jurkat cells in the logarithmic growth phase were selected and collected. […] The cells were inoculated into a 96-well plate (the volume was 90 μL per well), and a blank control well (without cells inoculation, and in which 110 μL of medium was added) was set. 10 μL of a drug-containing culture medium (10×) was transferred from the 10× drug intermediate plate into the 96-well cell plate (with a final concentration of 0.1% DMSO), and set a DMSO control group (in which 0.1% DMSO was added to the treated cells), a stimulated control group (in which 10 μL of culture medium was added to treat cells) and an unstimulated group (in which 10 μL of culture medium was added to treat cells). The wells were duplicated, gently patted, mixed, and then placed into a 5% CO2 incubator at 37° C. for 1 h.
Anti-CD3 beads stimulation: Dynabeads anti-human CD3 was taken, shaken, and mixed for 60 s. The required volume of beads was pipetted, and an equal volume or at least 1 mL of washing solution was added to wash once. Fresh complete medium was then added to resuspend and adjust the density of the beads to 4×10^7/mL, and the beads were placed on ice for later use. At the end of drug pre-incubation, the cell culture plate was taken out. 10 μL Dynabeads anti-human CD3 was added to each well to treat the cells, and 10 μL the culture medium was added to the unstimulated group. The cell culture plate was shaken to mix well at 2500 rpm for 10 s, and then placed into a 5% CO2 incubator at 37° C. and continued to culture for 20 min.
Detection of p-SLP76 protein level: PathScan Phospho-SLP-76 (Ser376) Sandwich ELISA Kit was applied to detect p-SLP76 protein level. At the end of the Anti-CD3 beads stimulation, the cell culture plate was removed from the incubator. […] After lysis, the cell culture plate was centrifuged at 4° C., 400×g for 5 min. 25 μL of sample and 75 μL of sample diluent were added to each well, and the plate was placed in a 5% CO2 incubator at 37° C. for 2 h. The subsequent detection steps were carried out following the kit instructions, and the absorbance (OD value) of each well was read at 450 nm by a microplate reader.
By IC50 is commonly meant the concentration that inhibits the measured activity by half. In turn, `Cc1c[nH]c2ncc(-c3cc4c(c(C5COCCN5)c3)CN(C(=O)[C@](C)(O)C(F)(F)F)CC4)cc12` (single isomer, unassigned) [Compound Z309-1] returned an IC50 of 82.6 nM.
The same measure for `O=C(N1CCc2cc(-c3cnc4[nH]cc(Cl)c4n3)cc([C@@H]3COCCN3)c2C1)N1C[C@H]2CC[C@@H]1CO2` (single isomer, unassigned) [Compound Z591]: 275 nM.
Next, `Cc1c[nH]c2ncc(-c3cc4c(c([C@@H]5COCCN5)c3)CN(C(=O)N3C[C@H]5CC[C@@H]3CO5)CC4)cc12` (single isomer, unassigned) [Compound Z643]: 294 nM.
Next, `COC1(C(=O)N2CCc3cc(-c4cnc5[nH]cc(C)c5c4)cc([C@@H]4COCCN4)c3C2)CC1` [Compound Z373, (R)-(1-methoxycyclopropyl)(6-(3-methyl-1H-pyrrolo[2,3-b]pyridin-5-yl)-8-(morpholin-3-yl)-3,4-dihydroisoquinolin-2(1H)-yl)methanone]: 159 nM; `O=C(N1CCc2cc(-c3cnc4[nH]cc(Cl)c4c3)cc([C@@H]3COCCN3)c2C1)C1(O)CC1` [Compound Z435, (R)-(6-(3-chloro-1H-pyrrolo[2,3-b]pyridin-5-yl)-8-(morpholin-3-yl)-3,4-dihydroisoquinolin-2(1H)-yl)(1-hydroxycyclopropyl)methanone]: 258 nM.
Take `Cc1c[nH]c2ncc(-c3cc4c(c([C@@H]5COCCN5)c3)CN(C(=O)N3CCO[C@@H](C)C3)CC4)cc12` [Compound Z452, (6-(3-methyl-1H-pyrrolo[2,3-b]pyridin-5-yl)-8-((R)-morpholin-3-yl)-3,4-dihydroisoquinolin-2(1H)-yl)((S)-2-methylmorpholine)methanone]: 238 nM corresponded to half-maximal inhibition (IC50).
The same measure for `Cc1c[nH]c2ncc(-c3cc4c(c([C@@H]5COCCN5)c3)CN(C(=O)N3CCOC(C)(C)C3)CC4)cc12` [Compound Z453, (R)-(2,2-dimethylmorpholine)(6-(3-methyl-1H-pyrrolo[2,3-b]pyridin-5-yl)-8-(morpholin-3-yl)-3,4-dihydroisoquinolin-2(1H)-yl)methanone]: 148 nM.
The compound `Cc1c[nH]c2ncc(-c3cc4c(c([C@@H]5COCCN5)c3)CN(C3CCOCC3)CC4)cc12` [Compound Z454, (R)-3-(6-(3-methyl-1H-pyrrolo[2,3-b]pyridin-5-yl)-2-(tetrahydro-2H-pyran-4-yl)-1,2,3,4-tetrahydroisoquinolin-8-yl)morpholine] came in with an IC50 of 655 nM.
`Cc1n[nH]c2ncc(-c3cc4c(c([C@@H]5COCCN5)c3)CN(C(=O)C(C)(C)O)CC4)cc12` [Compound Z455, (R)-2-hydroxy-2-methyl-1-(6-(3-methyl-1H-pyrazolo [3,4-b]pyridin-5-yl)-8-(morpholin-3-yl)-3,4-dihydroisoquinolin-2(1H)-yl)propan-1-one] gave a concentration for half-maximal inhibition (IC50) of 4430 nM.
With `Cc1c[nH]c2ncc(-c3cc4c(c([C@@H]5COCCN5)c3)CN(C(=O)c3cnn(C5CC5)c3)CC4)cc12` [Compound Z456], the concentration for half-maximal inhibition (IC50) came out at 315 nM.
As to `Cc1c[nH]c2ncc(-c3cc4c(c([C@@H]5COCCN5)c3)CN(C(=O)N3CC(C)OCC3C)CC4)cc12` (stereo partly drawn) [Compound Z458, (2,5-dimethylmorpholine)(6-(3-methyl-1H-pyrrolo[2,3-b]pyridin-5-yl)-8-((R)-morpholin-3-yl)-3,4-dihydroisoquinolin-2(1H)-yl)methanone], the IC50 is 127 nM.
Next, `Cc1c[nH]c2ncc(-c3cc4c(c([C@@H]5COCCN5)c3)CN(C(=O)N3CC(C)OC(C)C3)CC4)cc12` (stereo partly drawn) [Compound Z459, (2,6-dimethylmorpholine)(6-(3-methyl-1H-pyrrolo[2,3-b]pyridin-5-yl)-8-((R)-morpholin-3-yl)-3,4-dihydroisoquinolin-2(1H)-yl)methanone]: 171 nM; `Cc1c[nH]c2ncc(-c3cc4c(c([C@@H]5COCCN5)c3)CN(C(=O)N3C(C)COCC3C)CC4)cc12` (stereo partly drawn) [Compound Z460, (3,5-dimethylmorpholine)(6-(methyl-methyl-1H-pyrrolo[2,3-b]pyridin-5-yl)-8-((R)-morpholin-3-yl)-3,4-dihydroisoquinolin-2(1H)-yl)methanone]: 177 nM.
Next, `COC1CN(C(=O)N2CCc3cc(-c4cnc5[nH]cc(C)c5c4)cc([C@@H]4COCCN4)c3C2)C(C)(C)C1` (stereo partly drawn) [Compound Z461, (4-methoxy-2,2-dimethylpyrrolidin-1-yl)(6-(3-methyl-1H-pyrrolo[2,3-b]pyridin-5-yl)-8-((R)-morpholin-3-yl)-3,4-dihydroisoquinolin-2(1H)-yl)methanone]: 195 nM; `Cc1c[nH]c2ncc(-c3cc4c(c([C@@H]5COCCN5)c3)CN(C(=O)N3CC5CCC(C3)N5C)CC4)cc12` [Compound Z462]: 255 nM.
Next, `Cc1c[nH]c2ncc(-c3cc4c(c([C@@H]5COCCN5)c3)CN(C(=O)N3C[C@@H]5C[C@H]3CO5)CC4)cc12` [Compound Z463]: 293 nM.
Compound `CCc1c(F)[nH]c2ncc(-c3cc4c(c([C@@H]5COCCN5)c3)CN(C(=O)C(C)(C)O)CC4)cc12` [Compound Z464, (R)-3-(6-(3-ethyl-2-fluoro-1H-pyrrolo[2,3-b]pyridin-5-yl)-2-(2-hydroxy-2-methylpropanoyl)-1,2,3,4-tetrahydroisoquinolin-8-yl)morpholine] had an IC50 of 193 nM.
The compound `CC(C)(O)C(=O)N1CCc2cc(-c3cnc4[nH]cc(Cl)c4n3)cc([C@@H]3COCCN3)c2C1` [Compound Z465, (R)-3-(6-(7-chloro-5H-pyrrolo[2,3-b]pyrazin-2-yl)-2-(2-hydroxy-2-methylpropanoyl)-1,2,3,4-tetrahydroisoquinolin-8-yl)morpholine] registered an IC50 of 144 nM.
`COCC(=O)N1CCc2cc(-c3cnc4[nH]cc(Cl)c4c3)cc([C@@H]3COCCN3)c2C1` [Compound Z466, (R)-1-[6-(3-chloro-1H-pyrrolo[2,3-b]pyridin-5-yl)-8-morpholin-3-yl-3,4-dihydroisoquinolin-2(1H)-yl]-2-methoxyethan-1-one] registered an IC50 of 306 nM.
The same measure for `Cc1c[nH]c2ncc(-c3cc4c(c([C@@H]5COCCN5)c3)CN(S(=O)(=O)C3CC3)CC4)cc12` [Compound Z467, (R)-3-[2-cyclopropylsulfonyl-6-(3-methyl-1H-pyrrolo[2,3-b]pyridin-5-yl)-1,2,3,4-tetrahydroisoquinolin-8-yl]morpholine]: 385 nM; for `Cc1ncc(C(=O)N2CCc3cc(-c4cnc5[nH]cc(C)c5c4)cc([C@@H]4COCCN4)c3C2)cn1` [Compound Z468, (R)-(2-methylpyrimidin-5-yl)-[6-(3-methyl-1H-pyrrolo[2,3-b]pyridin-5-yl)-8-[morpholin-3-yl]-3,4-dihydroisoquinolin-2(1H)-yl]methanone]: 340 nM.
Next, `CN1C2CCC1CN(C(=O)N1CCc3cc(-c4cnc5[nH]cc(Cl)c5c4)cc([C@@H]4COCCN4)c3C1)C2` [Compound Z470]: 127 nM; `Cc1c[nH]c2ncc(-c3cc4c(c([C@@H]5COCCN5)c3)CN(C(=O)N3C5CCC3CN(C)C5)CC4)cc12` [Compound Z471, (6-(3-methyl-1H-pyrrolo[2,3-b]pyridin-5-yl)-8-((R)-morpholin-3-yl)-3,4-dihydroisoquinolin-2(1H)-yl)(3-methyl-3,8-diazabicyclo[3.2.1]octan-8-yl)methanone]: 180 nM.
In turn, `CN1CC2CCC(C1)N2C(=O)N1CCc2cc(-c3cnc4[nH]cc(Cl)c4c3)cc([C@@H]3COCCN3)c2C1` [Compound Z472] came in with an IC50 of 216 nM. The IC50 values of the last two compounds are within 1.5-fold of each other.
As for `O=C(N1CCc2cc(-c3cnc4[nH]cc(F)c4c3)cc([C@@H]3COCCN3)c2C1)N1CC2CCC(C1)O2` [Compound Z475], half-maximal inhibition (IC50) was put at 117 nM.
In the case of `Cc1c[nH]c2ncc(-c3cc4c(c([C@@H]5COCCN5)c3)CN(C(=O)c3cnn(C(C)C)c3)CC4)cc12` [Compound Z477], 422 nM corresponded to half-maximal inhibition (IC50).
The same measure for `CO[C@@H]1CCN(C(=O)N2CCc3cc(-c4cnc5[nH]cc(C)c5c4)cc([C@@H]4COCCN4)c3C2)C1` [Compound Z478]: 329 nM; for `Cc1c[nH]c2ncc(-c3cc4c(c([C@@H]5COCCN5)c3)CN(C(=O)N3CCOCC3(C)C)CC4)cc12` [Compound Z479, (R)-(3,3-dimethylmorpholine)(6-(3-methyl-1H-pyrrolo[2,3-b]pyridin-5-yl)-8-(morpholin-3-yl)-3,4-dihydroisoquinolin-2(1H)-yl)methanone]: 147 nM.
The same measure for `Cc1c[nH]c2ncc(-c3cc4c(c([C@@H]5COCCN5)c3)CN(C(=O)N3CCOC[C@H]3C)CC4)cc12` [Compound Z480, (6-(3-methyl-1H-pyrrolo[2,3-b]pyridin-5-yl)-8-((R)-morpholin-3-yl)-3,4-dihydroisoquinolin-2(1H)-yl)((R)-3-methylmorpholino)methanone]: 118 nM; for `Cc1c(Cl)[nH]c2ncc(-c3cc4c(c([C@@H]5COCCN5)c3)CN(C(=O)C(C)(C)O)CC4)cc12` [Compound Z481, (R)-1-(6-(2-chloro-3-methyl-1H-pyrrolo[2,3-b]pyridin-5-yl)-8-(morpholin-3-yl)-3,4-tetrahydroisoquinolin-2(1H)-yl)-2-hydroxy-2-methylpropan-1-one]: 443 nM; for `Cc1c[nH]c2ncc(-c3cc4c(c([C@@H]5COCCN5)c3)CN(C(=O)N3CCN(C)CC3)CC4)cc12` [Compound Z482, (R)-(6-(3-methyl-1H-pyrrolo[2,3-b]pyridin-5-yl)-8-(morpholin-3-yl)-3,4-dihydroisoquinolin-2(1H)-yl)(4-methylpiperazin-1-yl)methanone]: 311 nM.
As to `O=C(N1CCOCC1)N1CCc2cc(-c3cnc4[nH]cc(Cl)c4c3)cc([C@@H]3COCCN3)c2C1` [Compound Z483, (R)-(6-(3-chloro-1H-pyrrolo[2,3-b]pyridin-5-yl)-8-(morpholin-3-yl)-3,4-dihydroisoquinolin-2(1H)-yl)(morpholine)methanone], 112 nM corresponded to half-maximal inhibition (IC50). Against the preceding compound, the IC50 is about 2.8-fold lower.
The same measure for `Cc1c[nH]c2ncc(-c3cc4c(c([C@@H]5COCCN5)c3)CN(C(=O)N3CCO[C@H](C)C3)CC4)cc12` [Compound Z484, (6-(3-methyl-1H-pyrrolo[2,3-b]pyridin-5-yl)-8-((R)-morpholin-3-yl)-3,4-dihydroisoquinolin-2(1H)-yl)((R)-2-methylmorpholino)methanone]: 364 nM.
